From patent US20220323494A1, “Novel Control Switch” (GlaxoSmithKline Intellectual Property Development Limited, priority 2018, published 2022)

B1: Construct 14: conventional single chain CAR (SEQ ID NO: 52) that uses components from CONSTRUCT 10 (protein)
chain: MALPVTALLLPLALLLHAARPQVQLVQSGAEVKKPGSSVKVSCKGSGYTFTNYWMHWVRQAPGQGLEWIGATYRGHSDTYYNQKFKGRATLTADTSTSTAYMELSSLRSEDTAVYYCTRGAIYDGYDVLDNWGQGTLVTVSSGGGGSGGGGSGGGGSGGGGSDIQMTQSPSSLSASVGDRVTITCSASQDISNYLNWYQQKPGKAPKLLIYYTSNLHSGVPSRFSGSGSGTDFTLTISSLQPEDFATYYCQQYRKLPWTFGQGTKLEIKRFVPVFLPAKPTTTPAPRPPTPAPTIASQPLSLRPEACRPAAGGAVHTRGLDFACDIYIWAPLAGTCGVLLLSLVITLYCNHRNKRGRKKLLYIFKQPFMRPVQTTQEEDGCSCRFPEEEEGGCELRVKFSRSADAPAYQQGQNQLYNELNLGRREEYDVLDKRRGRDPEMGGKPRRKNPQEGLYNELQKDKMAEAYSEIGMKGERRRGKGHDGLYQGLSTATKDTYDALHMQALPPR
modifications: Construct 14 amino acid sequence

What was measured:
[1] = tested on: primary T-cells transduced with the HIV Integrase LEDGF/p75 OFF-switch CAR; assay: Cytokine release with titration of BI224436, primary T-cells transduced with Construct 13 (Example 6); format: cell-based, human
Protocol: Lentiviral vector production and transduction of primary T-cells: Method for lentiviral production is described in Example 4 and method for primary T-cell transduction is described in Example 5.
Cytokine release: ARH-77-10B5 cells were cultured as described in Example 1. BI224436 compound at a stock concentration of 100 mM in 100% DMSO was diluted in Jurkat media to achieve a stock concentration of 100 μM. Each T-cell population was incubated at a final concentration of 10 μM, 3.3 μM, 1.1 μM, 0.37 μM, 0.12 μM, 0.04 μM, 0.013 μM, 0.004 μM, 0.001 μM or 0 μM (media alone) BI224436 in Jurkat media for 1 hour at 37° C. with 5% CO2. T-cells were then co-cultured (5×10^4 cells per well, 1:1 effector:target ratio) with ARH-77-10B5 cells (BCMA positive cells) for 24 hours in Jurkat media at 37° C. with 5% CO2. Cells were pelleted (1200 rpm, 5 min) and supernatants were collected. Supernatants were analysed for cytokine levels using MSD V-plex Proinflammatory Panel 1 Human Kit (MSD, K15049D-2) and MSD Sector Imager (MSD).

[2] = tested on: primary T-cells transduced with the HIV Integrase LEDGF/p75 OFF-CAR; assay: Cytokine release by primary T-cells transduced with OFF-switch CAR (Example 5); format: cell-based, human; conditions: T-cells transduced with Construct 10 and 11; 10 μM, ARH-77-10B5, 24 hour
Protocol: Primary T-cell transduction and cytokine release: Peripheral blood mononuclear cells (PBMCs) from the fresh blood of two healthy human donors were isolated by density gradient centrifugation in Accuspin tubes (Sigma) containing 15 mL of Histopaque-1077 (Sigma) and following manufacturer's instructions. Cells were resuspended at 1×10^6 cells/mL in TEXMacs media (Miltenyi Biotec) containing 100 units/mL of IL-2 (Sigma) and TransAct beads (Miltenyi Biotec) and incubated for 48 hours at 37° C. with 5% CO2.
T-cells from the two donors were transduced with the lentiviral vectors encoding for CONSTRUCT 10 and CONSTRUCT 11. Transduction reactions were prepared to achieve an MOI of 5. T-cells were cultured in TEXMacs media (Miltentyi Biotec) with 100 units/mL of IL-2, fresh media was added every 3 days. ARH-77-10B5 cells were cultured as described in Example 1. BI224436 compound at a stock concentration of 100 mM in 100% DMSO was diluted in Jurkat media to achieve a stock concentration of 100 μM. Each T-cell population was incubated at a final concentration of 10 μM or 0 μM (media alone) BI224436 in Jurkat media for 1 hour at 37° C. with 5% CO2. […] Supernatants were analysed for cytokine levels using MSD V-plex Proinflammatory Panel 1 Human Kit (MSD, K15049D-2) and MSD Sector Imager (MSD).

[3] = tested on: NFAT promoter in Jurkat cells; assay: NFAT-luciferase assay in Jurkat cells transfected with CAR constructs, co-cultured with ARH-77-10B5 cells; format: cell-based; conditions: 3 μM BI224436, 48 hours
Protocol: NFAT-luc2 Jurkat cells (Promega) were cultured in Jurkat media: RPMI medium 1640 (1×) without L-glutamine with phenol red (Gibco), 10% (v/v) Fetal Bovine Serum (FBS) Heat-Inactivated (Gibco), 1% (v/v) Minimum essential medium non-essential amino acids (MEM NEAA) (ThermoFisher), 1% (v/v) Sodium Pyruvate (Sigma), 1% (v/v) L-Glutamine (Gibco). ARH-77-10B5 cells were cultured in Jurkat media plus 1 mg/mL G418 (Thermo, 10131035). Cells were incubated at 37° C. with 5% CO2 for 48 hours. 20 μg of plasmid DNA from each construct was mixed with 8×10^6 NFAT-luc2 Jurkat cells and cells were transfected using the 4D-Nucleofector (Lonza) with cell Line SE Nucleofector kit (Lonza) by following manufacturer instructions with program CL-120. BI224436 compound (Chemexpress HY-18595) at a stock concentration of 100 mM in 100% DMSO (Sigma, D2650) was diluted in Jurkat media to achieve a stock concentration of 100 μM. Using the 100 μM BI224436 stock in Jurkat media, NFAT-luc2 Jurkat cells were incubated at a final compound concentration of 3 μM for 48 hours at 37° C. with 5% CO2. NFAT-luc2 Jurkat cells were then co-cultured (1×10^5 cells per well, 1:1 effector:target ratio) with ARH-77-10B5 cells (BCMA positive cells) for 6.5 hours. NFAT-luciferase luminescence was measured by using the Bio-Glo Luciferase Assay System (Promega G7940) (following manufacturer's instructions) and an EnSpire Multimode Plate Reader (Perkin Elmer).

[4] = Plasma concentration of BI224436 in human subjects (clinical trial NCT01276990); format: in vivo; conditions: plasma 24 hours after 200 mg oral doses; IC50 is lower
K562 BCMA cells = assay: Flow cytometry cytotoxicity assay, BCMA-positive target cells; format: cell-based; conditions: for Effect of BI224436 on cytotoxicity: 10 μM BI224436
Protocol: (§1) Isolation and transduction of CD4+ and CD8+ T-cells: Peripheral blood mononuclear cells (PBMCs) from the fresh blood of one healthy human donor was isolated by density gradient centrifugation in Accuspin tubes (Sigma) containing 15 mL of Histopaque-1077 (Sigma) and following manufacturer's instructions. CD4+ and CD8+ T cells were isolated using CD4 and CD8 microbeads (Miltenyi Biotec) and the AutoMACS Pro-separator (Miltenyi Biotec). Cells were resuspended at 1×10^6 cells/mL in TEXMacs media (Miltenyi Biotec) containing 100 units/mL of IL-7 (Sigma), 100 units/mL of IL-15 (Sigma) and TransAct beads (Miltenyi Biotec) and incubated for 48 hours at 37° C. with 5% CO2.
T-cells were transduced with lentiviral vectors encoding for CONSTRUCT 14 or CONSTRUCT 10. Transduced T-cells and untransduced (UT) T-cells were cultured in TEXMacs media (Miltenyi Biotec) with 100 units/mL of IL-7 (Sigma) and IL-15 (Sigma), and fresh media was added every 3 days. […] 1×10^5 of each T-cell population was stained with AlexaFluor 647 conjugated BCMA-Fc (generated in-house) to label theanti-BCMA scFv on the CARs. Measurements were made using a Cytoflex S (Beckman Coulter) and data analysed using FlowJo (FlowJo).
K562 BCMA cells (BCMA positive) were cultured in Jurkat media plus 0.8 mg/mL G418 (Gibco) and K562 cells (BCMA negative) were cultured in Jurkat media. Both cell lines were cultured at 37° C. with 5% CO2. BI224436 compound at a stock concentration of 100 mM in 100% DMSO (Sigma) was diluted in Jurkat media to achieve a stock concentration of 100 μM. K562 cells were stained with Cell Trace Far Red (0.5 μM, ThermoFisher) and K562 BCMA cells were stained with Cell Trace Violet (2.5 μM, ThermoFisher). […] 50 μL of each well was analysed on a Cytoflex S (Beckman Coulter) and data was analysed using FlowJo (FlowJo). The percentage of surviving K562 and K562 BCMA cells was calculated by dividing the number of K562 and K562 BCMA cells in each condition by the number of K562 and K562 BCMA cells found following co-culture with UT T-cells in 0 μM BI224436.

ARH-77-10B5 cells = assay: xCelligence cytotoxicity assay; format: cell-based; conditions: T-cells transduced with Construct 10; 10 μM BI224436
Protocol: Transduction of primary T-cells: Method described in Example 5
xCelligence cytotoxicity assay ARH-77-10B5 cells were as described in Example 1. BI224436 compound at a stock concentration of 100 mM in 100% DMSO was diluted in Jurkat media to achieve a stock concentration of 100 μM. xCelligence E-plates (ACEA, 06472460001) were coated with anti-CD40 tethering agent by following manufacturer's instructions for B-cell Killing (anti-CD40) Assay kit (ACEA, 8100004). Plates were inserted into the xCelligence station (ACEA) (37° C., 5% CO2) and allowed to equilibrate to 37° C. for 1 hour prior to taking background measurement. ARH-77-10B5 cells or Jurkat media were added to the plates (1×10^4 cells per well) and cultured for 20 h. Each T-cell population was incubated at a final concentration of 10 μM or 0 μM BI224436 in Jurkat media for 1 hour at 37° C. with 5% CO2. T-cells were added to the plates (1×10^4 cells per well, 1:1 effector:target ratio) and incubated in the xCelligence station for 24 hours. Data analysis was carried out using xCELLigence Immunotherapy Software (ACEA). The cell index for samples was normalized to the point of T-cell addition, then the normalized cell index for T-cells was divided by the normalized cell index of target cells alone to give the % viable cells at a given timepoint.

[5] = tested on: K562 cells (BCMA negative); assay: Flow cytometry cytotoxicity assay, BCMA-negative target cells; format: cell-based; conditions: transduced primary T-cells, K562 WT, 1:1 or 4:1 effector:target, 48 hours
Protocol: as §1
T-cells were transduced with lentiviral vectors encoding for CONSTRUCT 14 or CONSTRUCT 10. […] Measurements were made using a Cytoflex S (Beckman Coulter) and data analysed using FlowJo (FlowJo).
K562 BCMA cells (BCMA positive) were cultured in Jurkat media plus 0.8 mg/mL G418 (Gibco) and K562 cells (BCMA negative) were cultured in Jurkat media. […] 50 μL of each well was analysed on a Cytoflex S (Beckman Coulter) and data was analysed using FlowJo (FlowJo). The percentage of surviving K562 and K562 BCMA cells was calculated by dividing the number of K562 and K562 BCMA cells in each condition by the number of K562 and K562 BCMA cells found following co-culture with UT T-cells in 0 μM BI224436.

Row | IC50 ([1]; Homo sapiens, T-cell, primary T-cells transduced with Construct 13, stimulated with ARH-77-10B5, 24 hours, read-out: IC50 concentration for cytokine release (TNF-alpha, IL-2, IFN-gamma)) [nM] | IC50 concentration relative to plasma concentrations in human subjects [4] [fold] | Molecule | Effect of BI224436 concentration on level of TNF-alpha, IL-2 and IFN-gamma release ([1]; primary T-cells transduced with Construct 13, 0.001-10 μM titration) | Effect of compound on cytokine release [2] | Effect of BI224436 on NFAT activation ([3]; Jurkat cells transfected with Construct 6) | Effect of BI224436 on NFAT activation ([3]; Jurkat cells transfected with Construct 7) | Effect of BI224436 on NFAT activation ([3]; Jurkat cells transfected with Constructs 1 to 4) | Effect of BI224436 on cytotoxicity (K562 BCMA cells; T-cells transduced with OFF-switch CAR (Construct 10)) | Effect of BI224436 on cytotoxicity (K562 BCMA cells; T-cells transduced with conventional CAR (Construct 14)) | Effect of BI224436 on cytotoxic response (ARH-77-10B5 cells) | Killing of BCMA-negative cells [5] | Killing of BCMA-positive cells (K562 BCMA cells; transduced primary T-cells, K562 BCMA, 1:1 or 4:1 effector:target, 48 hours)
1 | 100 | 10 | Cc1nc2ccccc2c(-c2ccc3c4c(ccnc24)CCO3)c1[C@H](OC(C)(C)C)C(=O)O [BI224436, 3-Quinolineacetic acid, 4-(2,3-dihydropyrano[4,3,2-de]quinolin-7-yl)-α-(1,1-dimethylethoxy)-2-methyl-,(αS,4R)-] | tunes the level | attenuated | preserved | preserved | does not reduce the level of activation | effectively attenuates | does not affect | reduced |  | 
2 |  |  | B1 |  |  |  |  |  |  |  |  | not BCMA-negative cells | kill BCMA-positive cells
